ChEMBL document CHEMBL4765227, “Hit to lead optimization of a series of N-[4-(1,3-benzothiazol-2-yl)phenyl]acetamides as monoacylglycerol lipase inhibitors with potential anticancer activity” (Eur J Med Chem, 2016)

Columns and labels:
Assay type in all cases: functional
Conditions in all cases: read-out: GI
[1] = system: NCI-H522; experiment: Growth inhibition of human NCI-H522 cells at 10 uM incubated for 48 hrs by sulforhodamine B assay relative to control
[2] = system: UACC-62; experiment: Growth inhibition of human UACC-62 cells at 10 uM incubated for 48 hrs by sulforhodamine B assay relative to control
[3] = system: CCRF-CEM; experiment: Growth inhibition of human CCRF-CEM cells at 10 uM incubated for 48 hrs by sulforhodamine B assay relative to control
[4] = system: SW-620; experiment: Growth inhibition of human SW-620 cells at 10 uM incubated for 48 hrs by sulforhodamine B assay relative to control
[5] = system: HCT-116; experiment: Growth inhibition of human HCT-116 cells at 10 uM incubated for 48 hrs by sulforhodamine B assay relative to control
[6] = system: BT-549; experiment: Growth inhibition of human BT-549 cells at 10 uM incubated for 48 hrs by sulforhodamine B assay relative to control
[7] = system: SN12C; experiment: Growth inhibition of human SN12C cells at 10 uM incubated for 48 hrs by sulforhodamine B assay relative to control
[8] = system: MOLT-4; experiment: Growth inhibition of human MOLT-4 cells at 10 uM incubated for 48 hrs by sulforhodamine B assay relative to control
[9] = system: ACHN; experiment: Growth inhibition of human ACHN cells at 10 uM incubated for 48 hrs by sulforhodamine B assay relative to control
[10] = system: MDA-MB-435; experiment: Growth inhibition of human MDA-MB-435 cells at 10 uM incubated for 48 hrs by sulforhodamine B assay relative to control
[11] = system: T47D; experiment: Growth inhibition of human T47D cells at 10 uM incubated for 48 hrs by sulforhodamine B assay relative to control
[12] = system: NCI-H322M; experiment: Growth inhibition of human NCI-H322M cells at 10 uM incubated for 48 hrs by sulforhodamine B assay relative to control
[13] = system: SNB-19; experiment: Growth inhibition of human SNB-19 cells at 10 uM incubated for 48 hrs by sulforhodamine B assay relative to control
[14] = system: SK-MEL-5; experiment: Growth inhibition of human SK-MEL-5 cells at 10 uM incubated for 48 hrs by sulforhodamine B assay relative to control
[15] = system: RXF 393; experiment: Growth inhibition of human RXF 393 cells at 10 uM incubated for 48 hrs by sulforhodamine B assay relative to control
[16] = system: HOP-62; experiment: Growth inhibition of human HOP-62 cells at 10 uM incubated for 48 hrs by sulforhodamine B assay relative to control
[17] = system: SK-MEL-28; experiment: Growth inhibition of human SK-MEL-28 cells at 10 uM incubated for 48 hrs by sulforhodamine B assay relative to control
[18] = system: RPMI-8226; experiment: Growth inhibition of human RPMI-8226 cells at 10 uM incubated for 48 hrs by sulforhodamine B assay relative to control
[19] = system: MDA-MB-231; experiment: Growth inhibition of human MDA-MB-231 cells at 10 uM incubated for 48 hrs by sulforhodamine B assay relative to control
[20] = system: HL-60(TB); experiment: Growth inhibition of human HL-60(TB) cells at 10 uM incubated for 48 hrs by sulforhodamine B assay relative to control
[21] = system: NCI-H226; experiment: Growth inhibition of human NCI-H226 cells at 10 uM incubated for 48 hrs by sulforhodamine B assay relative to control
[22] = system: IGROV-1; experiment: Growth inhibition of human IGROV-1 cells at 10 uM incubated for 48 hrs by sulforhodamine B assay relative to control
[23] = system: NCI/ADR-RES; experiment: Growth inhibition of human NCI/ADR-RES cells at 10 uM incubated for 48 hrs by sulforhodamine B assay relative to control
[24] = system: Malme-3M; experiment: Growth inhibition of human Malme-3M cells at 10 uM incubated for 48 hrs by sulforhodamine B assay relative to control
[25] = system: DU-145; experiment: Growth inhibition of human DU-145 cells at 10 uM incubated for 48 hrs by sulforhodamine B assay relative to control
[26] = system: PC-3; experiment: Growth inhibition of human PC-3 cells at 10 uM incubated for 48 hrs by sulforhodamine B assay relative to control
[27] = system: HOP-92; experiment: Growth inhibition of human HOP-92 cells at 10 uM incubated for 48 hrs by sulforhodamine B assay relative to control
[28] = system: M14; experiment: Growth inhibition of human M14 cells at 10 uM incubated for 48 hrs by sulforhodamine B assay relative to control
[29] = system: A549; experiment: Growth inhibition of human A549/ATCC cells at 10 uM incubated for 48 hrs by sulforhodamine B assay relative to control
[30] = system: MDA-MB-468; experiment: Growth inhibition of human MDA-MB-468 cells at 10 uM incubated for 48 hrs by sulforhodamine B assay relative to control
[31] = system: OVCAR-8; experiment: Growth inhibition of human OVCAR-8 cells at 10 uM incubated for 48 hrs by sulforhodamine B assay relative to control
[32] = system: K562; experiment: Growth inhibition of human K562 cells at 10 uM incubated for 48 hrs by sulforhodamine B assay relative to control
[33] = system: HCT-15; experiment: Growth inhibition of human HCT-15 cells at 10 uM incubated for 48 hrs by sulforhodamine B assay relative to control
[34] = system: CAKI-1; experiment: Growth inhibition of human CAKI-1 cells at 10 uM incubated for 48 hrs by sulforhodamine B assay relative to control
[35] = system: SK-OV-3; experiment: Growth inhibition of human SK-OV-3 cells at 10 uM incubated for 48 hrs by sulforhodamine B assay relative to control
[36] = system: U-251; experiment: Growth inhibition of human U-251 cells at 10 uM incubated for 48 hrs by sulforhodamine B assay relative to control
[37] = system: NCI-H460; experiment: Growth inhibition of human NCI-H460 cells at 10 uM incubated for 48 hrs by sulforhodamine B assay relative to control
[38] = system: UO-31; experiment: Growth inhibition of human UO-31 cells at 10 uM incubated for 48 hrs by sulforhodamine B assay relative to control
[39] = system: HCC 2998; experiment: Growth inhibition of human HCC 2998 cells at 10 uM incubated for 48 hrs by sulforhodamine B assay relative to control
[40] = system: TK-10; experiment: Growth inhibition of human TK-10 cells at 10 uM incubated for 48 hrs by sulforhodamine B assay relative to control
[41] = system: OVCAR-5; experiment: Growth inhibition of human OVCAR-5 cells at 10 uM incubated for 48 hrs by sulforhodamine B assay relative to control
[42] = system: KM12; experiment: Growth inhibition of human KM12 cells at 10 uM incubated for 48 hrs by sulforhodamine B assay relative to control
[43] = system: HT-29; experiment: Growth inhibition of human HT-29 cells at 10 uM incubated for 48 hrs by sulforhodamine B assay relative to control
[44] = system: SNB-75; experiment: Growth inhibition of human SNB-75 cells at 10 uM incubated for 48 hrs by sulforhodamine B assay relative to control

`COc1ccc(NCC(=O)Nc2ccc(-c3nc4ccccc4s3)cc2)cc1` showed an inhibition of growth at 10 µM [1] of 5.02%, an inhibition of growth at 10 µM [2] of 0.37% and an inhibition of growth at 10 µM [3] of 40.8%. For the same compound, the inhibition of growth at 10 µM [4] was -4.02%, the inhibition of growth at 10 µM [5] was 11.6% and the inhibition of growth at 10 µM [6] was 15.2%. For the same compound, the inhibition of growth at 10 µM [7] was 5.87%, the inhibition of growth at 10 µM [8] was 33.7% and the inhibition of growth at 10 µM [9] was -3.5%. The inhibition of growth at 10 µM [10] was -7.51%, the inhibition of growth at 10 µM [11] was 31.2% and the inhibition of growth at 10 µM [12] was 3%. It also gave an inhibition of growth at 10 µM [13] of 11.4%, an inhibition of growth at 10 µM [14] of 2.74% and an inhibition of growth at 10 µM [15] of -1.89%. It also gave an inhibition of growth at 10 µM [16] of 14.6%, an inhibition of growth at 10 µM [17] of -11.1% and an inhibition of growth at 10 µM [18] of 13.6%. The inhibition of growth at 10 µM [19] was 27.5%, the inhibition of growth at 10 µM [20] was 20.9% and the inhibition of growth at 10 µM [21] was 5.16%. It also gave an inhibition of growth at 10 µM [22] of 7.74%, an inhibition of growth at 10 µM [23] of -1.88% and an inhibition of growth at 10 µM [24] of -26%. The inhibition of growth at 10 µM [25] was 0.77%, the inhibition of growth at 10 µM [26] was 12.9% and the inhibition of growth at 10 µM [27] was 29.1%. For the same compound, the inhibition of growth at 10 µM [28] was 0.16%, the inhibition of growth at 10 µM [29] was 10.5% and the inhibition of growth at 10 µM [30] was 5.6%. For the same compound, the inhibition of growth at 10 µM [31] was 4.93%, the inhibition of growth at 10 µM [32] was 11.6% and the inhibition of growth at 10 µM [33] was 10.1%. It also gave an inhibition of growth at 10 µM [34] of -2.81%, an inhibition of growth at 10 µM [35] of -7.58% and an inhibition of growth at 10 µM [36] of 19.1%. The inhibition of growth at 10 µM [37] was 0.74%, the inhibition of growth at 10 µM [38] was 28.1% and the inhibition of growth at 10 µM [39] was 3.49%. The inhibition of growth at 10 µM [40] was -8.6%, the inhibition of growth at 10 µM [41] was 1.84% and the inhibition of growth at 10 µM [42] was 3.03%. For the same compound, the inhibition of growth at 10 µM [43] was -8.15% and the inhibition of growth at 10 µM [44] was 25.4%.

`O=C(CNc1nc2ccccc2s1)Nc1ccc(-c2nc3ccccc3s2)cc1` showed an inhibition of growth at 10 µM [1] of 8.76%, an inhibition of growth at 10 µM [2] of 5.38% and an inhibition of growth at 10 µM [3] of -10.5%. It also gave an inhibition of growth at 10 µM [4] of -8.73%, an inhibition of growth at 10 µM [5] of 1.08% and an inhibition of growth at 10 µM [6] of -6.3%. For the same compound, the inhibition of growth at 10 µM [7] was -2.68%, the inhibition of growth at 10 µM [8] was 15.8% and the inhibition of growth at 10 µM [9] was -6.65%. For the same compound, the inhibition of growth at 10 µM [10] was -8.66%, the inhibition of growth at 10 µM [11] was 26.1% and the inhibition of growth at 10 µM [12] was 7.75%. It also gave an inhibition of growth at 10 µM [13] of -0.11%, an inhibition of growth at 10 µM [14] of -2.93% and an inhibition of growth at 10 µM [15] of -12.5%. For the same compound, the inhibition of growth at 10 µM [16] was -4.25%, the inhibition of growth at 10 µM [17] was -13.3% and the inhibition of growth at 10 µM [18] was -7.46%. The inhibition of growth at 10 µM [19] was 0.75%, the inhibition of growth at 10 µM [20] was 0.87% and the inhibition of growth at 10 µM [21] was 7.62%. For the same compound, the inhibition of growth at 10 µM [22] was 33.4%, the inhibition of growth at 10 µM [23] was -1.94% and the inhibition of growth at 10 µM [24] was 1.87%. It also gave an inhibition of growth at 10 µM [25] of -5.64%, an inhibition of growth at 10 µM [26] of 4.99% and an inhibition of growth at 10 µM [27] of 0.18%. It also gave an inhibition of growth at 10 µM [28] of -15.4%, an inhibition of growth at 10 µM [29] of -0.04% and an inhibition of growth at 10 µM [30] of 118%. For the same compound, the inhibition of growth at 10 µM [31] was -2.25%, the inhibition of growth at 10 µM [32] was 4.87% and the inhibition of growth at 10 µM [33] was -4.63%. For the same compound, the inhibition of growth at 10 µM [34] was -0.18%, the inhibition of growth at 10 µM [35] was -7.21% and the inhibition of growth at 10 µM [36] was 10.9%. The inhibition of growth at 10 µM [37] was 0.21%, the inhibition of growth at 10 µM [38] was 19.5% and the inhibition of growth at 10 µM [39] was 7.87%. For the same compound, the inhibition of growth at 10 µM [40] was 3.3%, the inhibition of growth at 10 µM [41] was 1.6% and the inhibition of growth at 10 µM [42] was 0.84%. For the same compound, the inhibition of growth at 10 µM [43] was -8.9% and the inhibition of growth at 10 µM [44] was 1.04%.
